According to patent US5869494A, “Uses for barbituric acid analogs” (priority 1997, dated 1999):

Experiments:
Assay in all cases: NCI tumor cell line screen (SRB assay)
Assay type in all cases: cell-based
Design in all cases: activity: dose or concentration left out as unconfirmed
HCC-2998 = conditions: Homo sapiens, read-out: PERCENT GROWTH
Experimental: (§1) The National Cancer Institute carried out the studies at the direction of the present inventor.
(§2) In the tests, the National Cancer Institute used the SRB (sulforhodamine B) assay as described by Skehan et al., (Journal of the National Cancer Institute, 82:13, Jul. 4, 1990, 1107-1112). Briefly, the assay is as follows. TCA-fixed cells were stained for 30 minutes with 0.4% (wt/vol) SRB dissolved in 1% acetic acid. At the end of the staining period, SRB was removed and cultures were quickly rinsed four times with 1% acetic acid to remove unbound dye. The acetic acid was poured directly into the culture wells from a beaker. […] Residual wash solution was removed by sharply flicking plates over a sink, which ensured the complete removal of rinsing solution. […] After being rinsed, the cultures were air dried until no standing moisture was visible. Bound dye was solubilized with 10 mM unbuffered Tris base (pH 10.5) for 5 minutes on a gyratory shaker.
(§3) Optical density (OD) was read in either a UVmax microtiter plate reader (Molecular Devices, Menlo Park, Calif.) or a Beckman DU-70 spectrophotometer. For maximum sensitivity, OD was measured at 564 nm. Because readings were linear with dye concentrations only below 1.8 OD units, however, suboptimal wavelengths were generally used, so that all samples in an experiment remained within the linear OD range. With most cell lines, wavelengths of approximately 490-530 nm worked well for this purpose.
(§4) Nine different non-small cell lung carcinoma cell lines, six different colon carcinoma cell lines, six different CNS (central nervous system) carcinoma cell lines, seven different melanoma cell lines, six different ovarian carcinoma cell lines, and eight different renal carcinoma cell lines were tested.

LOX IMVI = conditions: Homo sapiens, read-out: PERCENT GROWTH
Experimental: as §1, §2, §3, §4

U251 = conditions: Homo sapiens, U-251, read-out: PERCENT GROWTH
Experimental: as §1, §2, §3, §4

RXF 393 = conditions: Homo sapiens, read-out: PERCENT GROWTH
Experimental: as §1, §2, §3, §4

OVCAR-4 = conditions: Homo sapiens, read-out: PERCENT GROWTH
Experimental: as §1, §2, §3, §4

CAKI-1 = conditions: Homo sapiens, read-out: PERCENT GROWTH
Experimental: as §1, §2, §3, §4

KM12 = conditions: Homo sapiens, read-out: PERCENT GROWTH
Experimental: as §1, §2, §3, §4

PK-10 = conditions: Homo sapiens, read-out: PERCENT GROWTH
Experimental: as §1, §2, §3, §4

ACHN = conditions: Homo sapiens, read-out: PERCENT GROWTH
Experimental: as §1, §2, §3, §4

UACC-62 = conditions: Homo sapiens, read-out: PERCENT GROWTH
Experimental: as §1, §2, §3, §4

SK-OV-3 = conditions: Homo sapiens, read-out: PERCENT GROWTH
Experimental: as §1, §2, §3, §4

NCI-H460 = conditions: Homo sapiens, read-out: PERCENT GROWTH
Experimental: as §1, §2, §3, §4

HCT-116 = conditions: Homo sapiens, read-out: PERCENT GROWTH
Experimental: as §1, §2, §3, §4

UO-31 = conditions: Homo sapiens, read-out: PERCENT GROWTH
Experimental: as §1, §2, §3, §4

SK-MEL-28 = conditions: Homo sapiens, read-out: PERCENT GROWTH
Experimental: as §1, §2, §3, §4

UACC-257 = conditions: Homo sapiens, read-out: PERCENT GROWTH
Experimental: as §1, §2, §3, §4

786-0 = conditions: Homo sapiens, read-out: PERCENT GROWTH
Experimental: as §1, §2, §3, §4

NCI-H522 = conditions: Homo sapiens, read-out: PERCENT GROWTH
Experimental: as §1, §2, §3, §4

Compound `CCCCN1C(=O)CC(=O)N(CCCC)C1=S` [Compound C1, 4,6(1H, 5H)-pyrimidinedione, 1,3-dibutyldihydro-2-thioxo] has an activity (HCC-2998; 10^-3.0 Molar) of -82%, an activity at 10 µM (HCC-2998; 10^-5.0 Molar) of 109% and an activity at 0.1 µM (HCC-2998; 10^-7.0 Molar) of 113%. The activity (LOX IMVI; 10^-3.0 Molar) was -100%, the activity at 100 µM (LOX IMVI; 10^-4.0 Molar) was 65% and the activity at 10 µM (LOX IMVI; 10^-5.0 Molar) was 102%. The activity at 1 µM (LOX IMVI; 10^-6.0 Molar) was 106%, the activity at 0.1 µM (LOX IMVI; 10^-7.0 Molar) was 101% and the activity (U251; 10^-3.0 Molar) was -55%. It also gave an activity at 100 µM (U251; 10^-4.0 Molar) of 54%, an activity at 10 µM (U251; 10^-5.0 Molar) of 102% and an activity at 1 µM (U251; 10^-6.0 Molar) of 111%. It also gave an activity at 0.1 µM (U251; 10^-7.0 Molar) of 104%, an activity (RXF 393; 10^-3.0 Molar) of -85% and an activity at 100 µM (RXF 393; 10^-4.0 Molar) of 43%. It also gave an activity at 10 µM (RXF 393; 10^-5.0 Molar) of 86%, an activity at 1 µM (RXF 393; 10^-6.0 Molar) of 93% and an activity at 0.1 µM (RXF 393; 10^-7.0 Molar) of 93%. The activity (OVCAR-4; 10^-3.0 Molar) was -75%, the activity at 100 µM (OVCAR-4; 10^-4.0 Molar) was 66% and the activity at 10 µM (OVCAR-4; 10^-5.0 Molar) was 105%. It also gave an activity at 1 µM (OVCAR-4; 10^-6.0 Molar) of 104%, an activity at 0.1 µM (OVCAR-4; 10^-7.0 Molar) of 101% and an activity (CAKI-1; 10^-3.0 Molar) of -100%. For the same compound, the activity at 100 µM (CAKI-1; 10^-4.0 Molar) was 92%, the activity at 10 µM (CAKI-1; 10^-5.0 Molar) was 73% and the activity at 1 µM (CAKI-1; 10^-6.0 Molar) was 85%. The activity at 0.1 µM (CAKI-1; 10^-7.0 Molar) was 103%, the activity (KM12; 10^-3.0 Molar) was -90% and the activity at 100 µM (KM12; 10^-4.0 Molar) was 76%. It also gave an activity at 10 µM (KM12; 10^-5.0 Molar) of 102%, an activity at 1 µM (KM12; 10^-6.0 Molar) of 101% and an activity at 0.1 µM (KM12; 10^-7.0 Molar) of 101%. For the same compound, the activity (PK-10) was -19%, the activity at 0.1 µM (PK-10) was 94% and the activity at 1 µM (PK-10) was 94%. For the same compound, the activity at 10 µM (PK-10) was 98%, the activity at 100 µM (PK-10) was 74% and the activity (ACHN; 10^-3.0 Molar) was -3%. The activity at 100 µM (ACHN; 10^-4.0 Molar) was 89%, the activity at 10 µM (ACHN; 10^-5.0 Molar) was 107% and the activity at 1 µM (ACHN; 10^-6.0 Molar) was 105%. The activity at 0.1 µM (ACHN; 10^-7.0 Molar) was 99%, the activity (UACC-62; 10^-3.0 Molar) was -79% and the activity at 100 µM (UACC-62; 10^-4.0 Molar) was 53%. The activity at 10 µM (UACC-62; 10^-5.0 Molar) was 88%, the activity at 1 µM (UACC-62; 10^-6.0 Molar) was 91% and the activity at 0.1 µM (UACC-62; 10^-7.0 Molar) was 94%. The activity (SK-OV-3; 10^-3.0 Molar) was -100%, the activity at 100 µM (SK-OV-3; 10^-4.0 Molar) was 85% and the activity at 10 µM (SK-OV-3; 10^-5.0 Molar) was 92%. The activity at 1 µM (SK-OV-3; 10^-6.0 Molar) was 90%, the activity at 0.1 µM (SK-OV-3; 10^-7.0 Molar) was 95% and the activity (NCI-H460; 10^-3.0 Molar) was -54%. It also gave an activity at 100 µM (NCI-H460; 10^-4.0 Molar) of 82%, an activity at 10 µM (NCI-H460; 10^-5.0 Molar) of 97% and an activity at 1 µM (NCI-H460; 10^-6.0 Molar) of 100%. The activity at 0.1 µM (NCI-H460; 10^-7.0 Molar) was 99%, the activity (HCT-116; 10^-3.0 Molar) was -100% and the activity at 100 µM (HCT-116; 10^-4.0 Molar) was 48%. The activity at 10 µM (HCT-116; 10^-5.0 Molar) was 118%, the activity at 1 µM (HCT-116; 10^-6.0 Molar) was 111% and the activity at 0.1 µM (HCT-116; 10^-7.0 Molar) was 109%. For the same compound, the activity (UO-31; 10^-3.0 Molar) was -75%, the activity at 100 µM (UO-31; 10^-4.0 Molar) was 63% and the activity at 10 µM (UO-31; 10^-5.0 Molar) was 92%. It also gave an activity at 1 µM (UO-31; 10^-6.0 Molar) of 99%, an activity at 0.1 µM (UO-31; 10^-7.0 Molar) of 92% and an activity (SK-MEL-28; 10^-3.0 Molar) of -75%. For the same compound, the activity at 100 µM (SK-MEL-28; 10^-4.0 Molar) was 69%, the activity at 10 µM (SK-MEL-28; 10^-5.0 Molar) was 108% and the activity at 1 µM (SK-MEL-28; 10^-6.0 Molar) was 111%. For the same compound, the activity at 0.1 µM (SK-MEL-28; 10^-7.0 Molar) was 110%, the activity (UACC-257; 10^-3.0 Molar) was -77% and the activity at 100 µM (UACC-257; 10^-4.0 Molar) was 75%. It also gave an activity at 10 µM (UACC-257; 10^-5.0 Molar) of 96%, an activity at 1 µM (UACC-257; 10^-6.0 Molar) of 102% and an activity at 0.1 µM (UACC-257; 10^-7.0 Molar) of 102%. For the same compound, the activity (786-0; 10^-3.0 Molar) was -100%, the activity at 100 µM (786-0; 10^-4.0 Molar) was 87% and the activity at 10 µM (786-0; 10^-5.0 Molar) was 115%. For the same compound, the activity at 1 µM (786-0; 10^-6.0 Molar) was 82%, the activity (NCI-H522; 10^-3.0 Molar) was -82% and the activity at 100 µM (NCI-H522; 10^-4.0 Molar) was 47%. The activity at 10 µM (NCI-H522; 10^-5.0 Molar) was 104%, the activity at 1 µM (NCI-H522; 10^-6.0 Molar) was 102% and the activity at 0.1 µM (NCI-H522; 10^-7.0 Molar) was 100%.
